Laboratory results: article PMC8491162, “Targeting the JAK/STAT Pathway: A Combined Ligand- and Target-Based Approach” (Journal of Chemical Information and Modeling, 2021)
Structures can show the parent of a compound that is named as a salt. Where two headings read alike, the source gives them in different places.

Experiments:
JAK2 [1] = target: T1, JAK2 (Homo sapiens, UniProt O60674); assay: JAK2 activity assay (JAK2 assay kit, BPS Bioscience; Kinase Glo Max luminescence); assay type: biochemical
T1 construct: purchased BPS Bioscience
T1 sequence (O60674 whole entry): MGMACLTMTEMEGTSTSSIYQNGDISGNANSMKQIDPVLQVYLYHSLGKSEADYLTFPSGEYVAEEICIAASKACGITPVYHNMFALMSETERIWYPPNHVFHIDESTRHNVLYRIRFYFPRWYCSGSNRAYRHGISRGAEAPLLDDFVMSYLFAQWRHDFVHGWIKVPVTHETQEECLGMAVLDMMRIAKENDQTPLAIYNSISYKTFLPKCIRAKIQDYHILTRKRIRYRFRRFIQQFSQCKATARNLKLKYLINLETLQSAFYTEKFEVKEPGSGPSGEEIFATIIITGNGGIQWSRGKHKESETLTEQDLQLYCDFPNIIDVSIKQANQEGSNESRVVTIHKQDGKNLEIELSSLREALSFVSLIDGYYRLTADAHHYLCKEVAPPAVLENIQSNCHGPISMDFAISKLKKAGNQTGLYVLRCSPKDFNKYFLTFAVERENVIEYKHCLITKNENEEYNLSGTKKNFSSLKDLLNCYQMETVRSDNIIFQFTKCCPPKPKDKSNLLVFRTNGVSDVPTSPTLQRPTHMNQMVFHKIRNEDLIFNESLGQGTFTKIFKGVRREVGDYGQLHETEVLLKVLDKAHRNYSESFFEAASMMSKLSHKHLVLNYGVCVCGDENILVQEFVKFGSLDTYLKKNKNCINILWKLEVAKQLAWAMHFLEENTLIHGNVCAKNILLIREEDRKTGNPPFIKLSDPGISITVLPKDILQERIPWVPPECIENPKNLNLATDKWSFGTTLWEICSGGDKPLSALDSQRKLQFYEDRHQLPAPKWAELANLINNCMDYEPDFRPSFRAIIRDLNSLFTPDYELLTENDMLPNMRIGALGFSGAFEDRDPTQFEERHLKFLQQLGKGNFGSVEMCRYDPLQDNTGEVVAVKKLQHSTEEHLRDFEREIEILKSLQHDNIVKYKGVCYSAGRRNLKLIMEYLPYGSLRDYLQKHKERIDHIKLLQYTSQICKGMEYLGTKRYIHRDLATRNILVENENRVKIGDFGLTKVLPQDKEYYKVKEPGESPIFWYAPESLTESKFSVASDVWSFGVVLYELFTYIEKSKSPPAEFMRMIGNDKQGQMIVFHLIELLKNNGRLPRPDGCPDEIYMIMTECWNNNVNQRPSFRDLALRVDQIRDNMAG
Method: According to the manufacturer’s instructions, the assay was performed in a white 96-well plate, in a total volume of 50 μL, adding a 5× kinase assay buffer, ATP (500 μM), protein tyrosine kinase substrate (10 mg/mL), water, tested molecules diluted in 0.1% DMSO solution, and JAK2 enzyme (2.5 ng/μL).
After 15 min of incubation at room temperature, the luminescence was measured by EnSpire Multimode Plate Reader (Perkin Elmer). All measurements were performed in triplicates for each compound, and the concentration range tested was 0.1–10 000 nM.

[2] = Solubility for in vitro testing; assay type: physicochemical; details: reason for not testing in vitro
JAK2 [3] = target: T1, JAK2; set-up: method as in earlier work; details: Figure 13; read-out: IC50 of commercially available JAK2 inhibitors; cited from earlier work
SH-SY5Y cells = assay: MTT cell viability assay; assay type: cell-based, Human; details: 100 μM, after 5 or 24 h, vs vehicle control
Method: Human SH-SY5Y neuroblastoma cells purchased from ICLC-IST (Genoa, Italy), were cultured in Dulbecco’s modified Eagle’s medium (DMEM), supplemented with 10% (v/v) fetal bovine serum (FBS), 100 units/mL penicillin, 100 μg/mL streptomycin, and 2 mM glutamine. Cells were incubated at 37 °C in a humidified atmosphere containing 5% CO2 and were allowed to reach 80% confluence before starting treatments. All reagents employed for cell culture were purchased from Lonza (Milan, Italy).
Drugs effects on cell viability were measured using the MTT [3-(4,5-dimethylthiazol-2-yl)-2,5-diphenyltetrazolium bromide] assay.[40] All reagents were purchased from Sigma-Aldrich (Milan, Italy) unless otherwise indicated. Briefly, cells were plated on 24-well plates at a density of 3 × 10^4 cells/well and were grown to reach 80% confluence. Cells were treated with vehicle (DMEM containing 0.1% dimethyl sulfoxide (DMSO)) or drugs dissolved in vehicle at the final concentrations of 1, 10, or 100 μM. After 5 or 24 h, the culture medium was removed and replaced with fresh DMEM containing the MTT solution (0.5 mg/mL) and cells were incubated in the dark for 3 h at 37 °C. […] The optical densities (ODs) were then recorded using a microplate spectrophotometer (GENios Tecan, Austria) at 590 nm. Results were expressed as a percentage of OD values of drug-treated cell cultures compared to vehicle-treated ones.

[4] = 95% confidence limits in brackets, triplicates, read-out: IC50 in the enzymatic assay for JAK2 inhibition
[5] = as quoted in abstract and conclusions, read-out: IC50 against JAK2

Compound COc1cccc(C2C(C#N)=C(N)Oc3[nH]nc(C)c32)c1 (stereo not shown) [Compound 3] has an IC50 (JAK2 [1]; [4]) greater than 10000 nM.

For COCCNC(=O)c1cc2c(=O)n3cccc(C)c3nc2n(Cc2ccco2)c1=N [Compound 2], the Solubility [2] was “solubility problems”.

CC(=O)c1oc2ccccc2c1N [Compound 1] gave an IC50 (JAK2 [1]; [4]) greater than 10000 nM.

For C[C@H](NC(=O)/C(C#N)=C/c1cccc(Br)n1)c1ccccc1 [WP1066], the IC50 (JAK2 [3]) is given as 2300 nM.

With O=C(O)CSc1nnc2n1CCCN2 [Compound 6] the “Cell viability (MTT)” value (SH-SY5Y cells) was “significant decrease” and the IC50 (JAK2 [1]; [4]) was greater than 10000 nM.

In the case of CC(CCc1ccccn1)(CCc1ccccn1)C(=O)c1ccccc1 [NSC 42834], the IC50 (JAK2 [3]) is listed as 15000 nM.

NS(=O)(=O)c1ccc(NC(=O)Cn2cnc3scc(-c4ccco4)c3c2=O)cc1 [Compound 7] showed an IC50 (JAK2 [1]; [4]) of 637 nM and an IC50 (JAK2 [1]; [5]) of 640 nM.

In the case of CC(=O)Nc1cc(Oc2ccc3c(nc(Nc4ccc(F)cc4F)n3C)c2C)ccn1 [CHZ868], the IC50 (JAK2 [3]) is given as 170 nM.

O=C1C2C3C=CC(CO)(O3)C2C(=O)N1c1cccc([N+](=O)[O-])c1 (stereo not shown) [Compound 4] showed an IC50 (JAK2 [1]; [4]) of 807 nM and an IC50 (JAK2 [1]; [5]) of 810 nM.

With Cc1n[nH]c(C)c1C(=O)CC1(O)C(=O)N(Cc2ccccc2)c2ccccc21 (stereo not shown) [Compound 5] the IC50 (JAK2 [1]; [4]) was greater than 10000 nM.

In the case of COC(=O)C1=C(C)NC(C)=C(C(=O)OCCN2CCN(C(=O)c3ccco3)CC2)C1c1cccc([N+](=O)[O-])c1 (stereo not shown) [Compound 8], the “Cell viability (MTT)” value (SH-SY5Y cells) is reported as “significant decrease” and the IC50 (JAK2 [1]; [4]) is reported as greater than 10000 nM.

For CCCC1(CCC)CCC2(CCN(CCCN(CC)CC)C2)CC1 [Atiprimod dihydrochloride], the IC50 (JAK2 [3]) is given as 400 nM.
